Reference: PubChem BioAssay AID651849 (The Scripps Research Institute Molecular Screening Center, 2012)

Each molecule was assayed against Photoreceptor-specific nuclear receptor (Homo sapiens) (UniProt Q9Y5X4) (assay: NR2E3 agonists releasing NCOR corepressor, dose response, cell-based, luminescence, CHO-S two-hybrid, late stage (AID 651849)). Conditions: CHO-S Gal4-NCOR/VP16-NR2E3 two-hybrid, luciferase.
Chain of Photoreceptor-specific nuclear receptor (Homo sapiens) (Q9Y5X4 whole entry, looked up, the tested form may be a part): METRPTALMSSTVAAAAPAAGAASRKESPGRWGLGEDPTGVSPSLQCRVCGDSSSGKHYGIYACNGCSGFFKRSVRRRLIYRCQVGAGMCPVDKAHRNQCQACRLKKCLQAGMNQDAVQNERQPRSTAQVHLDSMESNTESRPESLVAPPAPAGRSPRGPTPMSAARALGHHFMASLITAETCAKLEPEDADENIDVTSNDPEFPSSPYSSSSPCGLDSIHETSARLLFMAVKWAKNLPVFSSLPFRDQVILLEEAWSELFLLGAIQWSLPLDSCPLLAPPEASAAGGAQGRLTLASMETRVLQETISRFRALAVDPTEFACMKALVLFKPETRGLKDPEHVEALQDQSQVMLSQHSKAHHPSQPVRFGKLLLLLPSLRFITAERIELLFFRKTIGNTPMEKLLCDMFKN
Work on `COc1cccc(NC(=O)CSc2nc3ncc(Br)cc3[nH]2)c1` yielded an IC50 of 3570 nM. `O=c1cc(N2CCN(c3cccc(Cl)c3)CC2)[nH]c(=O)n1C1CCCCC1` gave an IC50 of 72.7 nM. `O=c1c(Cl)c(N2CCN(c3ccc(F)cc3)CC2)cnn1C12CC3CC(CC(C3)C1)C2` gave an IC50 of 3340 nM. With `COc1ccc(OC)c(NC(=O)CSc2nnnn2-c2ccc3c(c2)OCO3)c1` the IC50 was 301 nM. In the case of `Cc1cnc(NC(=O)Cc2ccc(Br)cc2)s1`, the IC50 is reported as 2250 nM. With `Cc1ccc(NC(=O)CSc2nnnn2-c2ccc3c(c2)OCO3)cc1C` the IC50 was 566 nM. `Cc1ccc(-c2nc(NC(=O)CSc3nnnn3-c3ccccc3)ns2)cc1` was tested, and the IC50 was 404 nM. With `COc1cc2nc(CN3CC=C(c4ccccc4)CC3)[nH]c(=O)c2cc1OC` the IC50 was 393 nM. `COc1ccc(NC2c3ccccc3C(=O)N2Cc2ccccc2Cl)cc1OC` (stereo unspecified) showed an IC50 of 4840 nM. `Cc1cc(C)cc(NC(=O)CCc2nc3sc4c(c3c(=O)[nH]2)CCCC4)c1` gave an IC50 of 249 nM. `COc1ccc2c(CC(=O)Nc3ncc(C)s3)coc2c1` showed an IC50 of 1920 nM. For `O=C(O)CC1(CC(=O)Nc2cc(C(F)(F)F)cc(C(F)(F)F)c2)CCCCC1`, the IC50 was 4020 nM. With `O=C(CSc1nnnn1-c1ccc(O)cc1)Nc1ccc(N2CCOCC2)c(Cl)c1` the IC50 was 1250 nM. Molecule `COc1ccc(S(=O)(=O)N2CCCCC2)cc1NC(=S)Nc1ccccc1` has an IC50 of 2630 nM. Molecule `Cc1cccc(OCCCC(=O)Nc2nc3ccccc3[nH]2)c1` has an IC50 of 5300 nM. `O=C(Nc1cccc(NC(=O)c2c(F)cccc2F)n1)c1c(F)cccc1F` gave an IC50 of 7990 nM. `Cc1cnc(NC(=O)CCCc2nc3ccccc3s2)s1` gave an IC50 of 945 nM. Molecule `Cc1cccc(C(=O)N[C@H](C(=O)Nc2ncc(C)s2)C(C)C)c1` has an IC50 of 324 nM. In the case of `Cc1ccc(CN2CC(C(=O)Nc3ncc(C)s3)CC2=O)cc1` (stereo unspecified), the IC50 is reported as 516 nM. For `NC(=O)c1nn(-c2ccccc2)nc1NC(=O)CSc1nnnn1-c1ccc(Cl)cc1`, the IC50 was 1570 nM. `Cc1onc(-c2ccccc2Cl)c1C(=O)Nc1nc2c(s1)CCCC2` showed an IC50 of 597 nM. With `COc1cccc(N2CCN(c3nc(-c4ccccc4C)cc(=O)[nH]3)CC2)c1` the IC50 was 428 nM. For `O=C(CSc1nnnn1-c1ccc2c(c1)OCCO2)Nc1nc2c(s1)CCCC2`, the IC50 was 682 nM. `COc1ccc(S(=O)(=O)N2CCCCC2)cc1NC(=S)Nc1cccc(Cl)c1C` showed an IC50 of 1500 nM. With `Cc1ccnc(NC(=O)CSc2cc(=O)n(C)c3ccccc23)c1` the IC50 was 1430 nM. With `Cc1cnc(NC(=O)C2CC(=O)N(c3ccc4c(c3)OCCO4)C2)s1` (stereo unspecified) the IC50 was 7060 nM.
